Here are results for two molecules from US9681647B2, “Mammal with an orthotopic tumor capable of metastasis, a method of making and a method of using” (Cornell University, priority 2012, dated 2017).

Marks after values point to notes of the source that are not given here.

Series [1] deals with metastatic tumors made according to the present disclosure. The experiment in a line: Oxaliplatin treatment of metastatic tumors versus primary GI tumors and subcutaneous xenografts. The class given is in vivo.
Series [2] has as its system early stage CCIC colon/intestine and ex-GI xenograft tumors (CCR9/CCL25 axis). Put plainly: CCIC xenograft tumor formation after tail vein injection, CCR9/CCL25 blocked before or with cell injection (Table 2). Type of series: in vivo, NOD/SCID mice. From the text:
CCR9 constitutive and inducible knockdown; Snail or CD26 knockdown in CCIC and NOTCH reporter CCIC. The lentiviral vector pEco-CMV-H1-shRNA-GFP encoding a shRNA hairpin sequence (CCR9: 5′-CTTGTACTGGC[…] ID NO:14; Snail: 5′-GAGCTGCAGG[…] ID NO:15; CD26: 5′-CATTCCTACAC[…] ID NO:16) was used for CCR9, Snail or CD26 expression knockdown and the lentiviral vectors pEco-CMV-H1-GFP (GenTarget Inc, San Diego, Calif.) and pEco-CMV-H1-scrambled-shRNA-GFP served as controls. To generate the lentiviral vectors, the above plasmids were transfected into HEK293T cells with the Genetargetlentivirus packaging mix (GenTarget Inc, San Diego, Calif.) according to the manufacturer's protocol. For CCR9 tetracycline inducible knockdown, the same shRNA hairpin sequence against CCR9 gene was inserted into pLenti-H1-shRNA-RSV (GFP-Puro) vector (GenTarget Inc, San Diego, Calif.) and packaged into lentivirus particles, which were used together with another TetR expression lentivirus (RFP-Bsd)(GenTarget Inc, San Diego, Calif.) to infect CCICs. After antibiotic selection and GFP/RFP dual FACS purification, the CCR9 shRNA knockdown can be induced by 1 ug/ml (in vitro) or 1 mg/ml (in vivo) doxycycline. NOTCH signaling reporter CCIC was generated by infecting CCIC with pCignalLenti RBP-Jk Reporter (GFP) ready lentivirus (SABiosciences, Inc.). After infecting CCIC lines with these lentiviral vectors, stable knockdown clones were obtained through antibiotic selection of blasticidin (Invitrogen, Carlsbad, Calif.). The efficiency of the CCR9, SNAIL or CD26 knockdown in CCIC was verified by Western Blotting and efficiency of NOTCH signaling reporter was tested by 2 μg/ml Jagged-1 (AnaSpec) treatment following by GFP-FACS sorting.
CCIC xenograft tumor formation in colon/intestine and other organs. 0.5-1×10^6CCIC or common CRC cells were injected into 6-8 weeks old non-obese diabetic/severe combined immunodeficient (NOD/SCID) mice (Jackson Laboratory, Bar Harbor, Me.) by tail vein injection. Tumor incidence was monitored 2-3× weekly. When mice became moribund, they were sacrificed immediately, necropsy performed and tumors harvested using a dissecting microscope. For ex vivo GFP imaging of tumor tissues, lentiviral infection by the pEco-CMV-GFP vector was used to generate CCIC lines that stably express GFP and maintained in puromycin selection. 10^6 of these fluorescent CCIC were systemically injected as described above. Intestinal tissues harvested at the time of sacrifice were analyzed for GFP expression with Cri Maestro Imaging Systems (Cambridge Research & Instrumentation Inc, Woburn, Mass.).
For the CCR9 study, native CCICs, CCICs with CCR9, Snail (SNAL1) or CD26 knockdown (or commonly used CRC cell lines such as HCT116, etc. as indicated), CCR9+ CCIC with CCR9 inducible knockdown were intravenously inoculated into the 6-8 weeks old NOD/SCID mice by tail vein. Mice that became moribund were sacrificed immediately, whereas the rest were closely monitored for 16 weeks before sacrifice. To test whether CCL25 antibody could inhibit the CCL25-CCR9 GI homing mechanism in vivo, a dose of 100 ug goat anti-mouse CCL25 neutralization antibody (R&D systems, Cat #AF-481-NA), was IP administrated to each mouse twice (the same dose and schedule as used in). As a negative control, a dose of 100 ug Goat IgG (R&D systems) was administered to each mouse in the control group. Then 1×10^6CCIC were injected into the mice 8 hours after or with the injection of the antibody. To test whether extra-GI metastasis is induced by CCR9/CCL25 signaling blockade, CCL25 neutralization antibody with the same dose was IP administrated to each mouse every three days or 1 mg/ml doxycycline in drinking water was given to mice every other days starting from the fourth week after CCIC inoculation until mice get moribund.

Where [3] appears, read: mice tail vein injected with early stage CCIC, blockade before/concurrent with injection or constitutive shRNA KD.

For `O=C1[O][Pt]2([NH][C@@H]3CCCC[C@H]3[NH]2)[O]C1=O` [oxaiplatin], the “chemoresistance of metastatic tumors relative to primary GI tumors and subcutaneous xenografts” value in series [1] was “more chemoresistant”.

As for “CCR9 KD: constitutive lentiviral shRNA against CCR9 (hairpin 5'-CTTGTACTGGCTCGTGTTCAT, SEQ ID NO:14) expressed in CCIC”, the “overall survival of mice vs. control” value in series [2] (mice systemically injected with CCIC, Kaplan-Meier, FIG. 6C) was “significantly longer”. Further, in series [2] (setting [3]), the “Ex-GI Tumor Incidence (%)” value was 85.7%, the “GI Tumor Incidence (%)” value is given as 14.3* %, the “Mean Ex-GI Tumors/Mouse” value is recorded as 105.0* and the “Mean GI Tumors/mouse” value is recorded as 0.3*. Moreover, the “Mean Progression (weeks)” value in series [2] (mice tail vein injected with early stage CCIC, time until moribund, blockade before/concurrent with injection or constitutive shRNA KD) is given as 13.0* weeks.
